This note sets out measurements from ChEMBL document CHEMBL2331421, “Amino acid derived quinazolines as Rock/PKA inhibitors” (Bioorg Med Chem Lett, 2013).

A short description of assay [1]: Inhibition of PKA (unknown origin). Also on record: species or system Homo sapiens.
Assay [2] addresses Rho-associated protein kinase 2 (Homo sapiens, UniProt O75116). Briefly: Inhibition of human recombinant 6-His-tagged ROCK2 expressed in baculovirus-infected Sf9 cells using LCB-AKRRRLSSLRA-NH2 as substrate after 25 mins by TR-FRET assay.

Rho-associated protein kinase 2, sequence (O75116 whole entry): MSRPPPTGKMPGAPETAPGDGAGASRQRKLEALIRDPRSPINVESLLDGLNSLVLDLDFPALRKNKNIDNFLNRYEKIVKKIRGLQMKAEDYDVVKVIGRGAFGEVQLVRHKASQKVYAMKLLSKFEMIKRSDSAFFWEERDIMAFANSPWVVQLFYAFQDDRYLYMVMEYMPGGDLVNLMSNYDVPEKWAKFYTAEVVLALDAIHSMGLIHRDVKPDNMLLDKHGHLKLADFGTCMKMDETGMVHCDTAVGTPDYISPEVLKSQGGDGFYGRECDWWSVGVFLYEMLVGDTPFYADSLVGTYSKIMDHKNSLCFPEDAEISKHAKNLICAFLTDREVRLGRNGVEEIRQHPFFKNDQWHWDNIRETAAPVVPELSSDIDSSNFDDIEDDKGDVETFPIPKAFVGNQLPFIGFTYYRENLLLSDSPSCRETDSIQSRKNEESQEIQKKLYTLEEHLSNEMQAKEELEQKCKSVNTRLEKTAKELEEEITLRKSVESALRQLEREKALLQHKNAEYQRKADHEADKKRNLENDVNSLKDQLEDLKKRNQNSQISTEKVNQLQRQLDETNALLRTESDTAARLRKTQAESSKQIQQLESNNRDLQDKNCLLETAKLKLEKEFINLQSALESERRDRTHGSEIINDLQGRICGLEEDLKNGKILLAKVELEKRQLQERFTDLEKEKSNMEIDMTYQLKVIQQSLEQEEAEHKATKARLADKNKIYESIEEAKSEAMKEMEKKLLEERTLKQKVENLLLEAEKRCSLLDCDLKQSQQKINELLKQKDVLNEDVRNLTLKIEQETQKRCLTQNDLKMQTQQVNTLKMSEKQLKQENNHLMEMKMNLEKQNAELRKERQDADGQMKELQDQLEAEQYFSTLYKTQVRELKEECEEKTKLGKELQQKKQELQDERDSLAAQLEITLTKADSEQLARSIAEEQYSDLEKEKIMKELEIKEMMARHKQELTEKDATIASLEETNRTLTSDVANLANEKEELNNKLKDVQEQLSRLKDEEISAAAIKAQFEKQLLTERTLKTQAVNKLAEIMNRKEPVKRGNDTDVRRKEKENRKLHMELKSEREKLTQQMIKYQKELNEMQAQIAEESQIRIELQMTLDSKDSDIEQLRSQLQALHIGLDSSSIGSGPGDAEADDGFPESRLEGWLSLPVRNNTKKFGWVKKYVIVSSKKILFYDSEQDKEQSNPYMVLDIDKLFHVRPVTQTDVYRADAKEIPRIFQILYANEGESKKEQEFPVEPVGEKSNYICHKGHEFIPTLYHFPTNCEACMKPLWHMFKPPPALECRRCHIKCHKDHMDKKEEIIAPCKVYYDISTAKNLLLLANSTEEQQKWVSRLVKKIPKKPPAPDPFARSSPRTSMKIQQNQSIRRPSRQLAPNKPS

On to `NCCC(=O)NC(c1ccc(Cl)cc1)c1nc2ccc(-c3cn[nH]c3)cc2c(=O)[nH]1` (stereo not drawn), for which the IC50 in assay [1] was 21 nM; in assay [2] it was 6 nM.
On to `CN(CCO)c1nc([C@H](N)Cc2cccc(F)c2)nc2ccc(-c3cn[nH]c3)cc12`, for which the IC50 in assay [1] is 44 nM; in assay [2] it was 27 nM.
Take `O=c1[nH]c([C@@H]2CNC[C@H]2c2ccc(C(F)(F)F)cc2)nc2ccc(-c3cn[nH]c3)cc12`: the IC50 in assay [1] stood at 6 nM; in assay [2] it was 2 nM.
On to `CN(C)CCN(C)c1nc([C@H](N)Cc2cccc(F)c2)nc2ccc(-c3cn[nH]c3)cc12`, for which the IC50 in assay [1] stood at 1160 nM; in assay [2], 627 nM.
For `CN(C)CCNc1nc([C@@H]2CNC[C@H]2c2ccc(F)cc2)nc2ccc(-c3cn[nH]c3)cc12`, in that order: 884 nM and 371 nM.
For `COc1ccc(C[C@H](N)c2nc3ccc(-c4cn[nH]c4)cc3c(=O)[nH]2)cc1OC`, in that order: 38 nM and 39 nM.
In the case of `N[C@H](Cc1cccc(C(F)(F)F)c1)c1nc2ccc(-c3cn[nH]c3)cc2c(=O)[nH]1`, the figures for the IC50 in assay [1] and in assay [2] were 28 nM and 16 nM, respectively.
`N[C@@H](Cc1ccccc1)c1nc2ccc(-c3cn[nH]c3)cc2c(=O)[nH]1`: the figures for the IC50 in assay [1] and in assay [2] were 7 nM and 12 nM, respectively.
On to `C[N+]1(C)C[C@@H](c2ccccc2)[C@H](c2nc3ccc(-c4cn[nH]c4)cc3c(=O)[nH]2)C1`, for which the IC50 is 23 nM in assay [1] and 4 nM in assay [2].
Turning to `CN(C)c1nc([C@@H](N)Cc2cccc(F)c2)nc2ccc(-c3cn[nH]c3)cc12`, the 50% inhibitory concentration (IC50) worked out at 259 nM in assay [1] and 67 nM in assay [2].
As to `CCOc1ccc(C[C@H](N)c2nc3ccc(-c4cn[nH]c4)cc3c(=O)[nH]2)cc1`, the IC50 worked out at 60 nM in assay [1] and 19 nM in assay [2].
For `O=c1[nH]c([C@@H]2CNC[C@H]2c2ccccc2)nc2ccc(-c3ccncc3)cc12`, in that order: 29 nM and 23 nM.
In the case of `COc1cc(-c2cn[nH]c2)cc2c(=O)[nH]c([C@@H](N)Cc3cccc(F)c3)nc12`, the figures for the IC50 in assay [1] and in assay [2] were 26 nM and 8 nM, respectively.
For `O=c1[nH]c([C@@H]2CN(Cc3ccccc3)C[C@H]2c2cccc(F)c2)nc2ccc(-c3cn[nH]c3)cc12`, the IC50 in assay [1] was found to be 423 nM; in assay [2], 225 nM.
With `N[C@H](Cc1cccc(Cl)c1)c1nc2ccc(-c3cn[nH]c3)cc2c(=O)[nH]1`, the IC50 was 6 nM in assay [1] and 13 nM in assay [2].
For `NC(c1ccc(Cl)cc1)c1nc2ccc(-c3cn[nH]c3)cc2c(=O)[nH]1` (stereo not drawn), in that order: 9 nM and 10 nM.
`N[C@H](Cc1ccc(Cl)cc1)c1nc2ccc(-c3cn[nH]c3)cc2c(=O)[nH]1`: the IC50 in assay [1] is 5 nM; in assay [2] it was 4 nM.
Regarding `CCN[C@H](Cc1ccc(Cl)cc1)c1nc2ccc(-c3cn[nH]c3)cc2c(=O)[nH]1`, the IC50 stood at 17 nM in assay [1] and 14 nM in assay [2].
As for `Nc1nccc(-c2ccc3nc([C@@H]4CNC[C@H]4c4ccccc4)[nH]c(=O)c3c2)n1`, the IC50 in assay [1] was determined as 10 nM; in assay [2], 6 nM.
Turning to `N[C@@H](Cc1ccccc1)c1nc2ccc(-c3ccncc3)cc2c(=O)[nH]1`, the IC50 in assay [1] stood at 49 nM; in assay [2], 52 nM.
As to `N[C@H](Cc1ccc(F)c(F)c1)c1nc2ccc(-c3cn[nH]c3)cc2c(=O)[nH]1`, the figures for the IC50 in assay [1] and in assay [2] were 12 nM and 7 nM, respectively.
For the compound `NCc1cccc(C(=O)NC(c2ccc(Cl)cc2)c2nc3ccc(-c4cn[nH]c4)cc3c(=O)[nH]2)c1` (stereo not drawn), the IC50 in assay [1] is 28 nM; in assay [2] it was 20 nM.
In the case of `O=c1[nH]c([C@@H]2CN(Cc3ccccc3)C[C@H]2c2ccccc2F)nc2ccc(-c3cn[nH]c3)cc12`, the IC50 amounted to 233 nM in assay [1] and 49 nM in assay [2].
Take `CN(CCCO)c1nc([C@H](N)Cc2cccc(F)c2)nc2ccc(-c3cn[nH]c3)cc12`: the IC50 in assay [2] is 159 nM.
With `COc1ccc([C@@H]2CN(Cc3ccccc3)C[C@H]2c2nc3ccc(-c4cn[nH]c4)cc3c(=O)[nH]2)cc1`, the values for the IC50 in assay [1] and in assay [2] were 117 nM and 88 nM, respectively.
Take `COc1cc(-c2cn[nH]c2)cc2c(=O)[nH]c(C(N)c3ccc(Cl)cc3)nc12` (stereo not drawn): the results for the IC50 in assay [1] and in assay [2] were 14 nM and 9 nM, respectively.
Consider `O=C(Cc1cccnc1)N[C@H](Cc1ccc(Cl)cc1)c1nc2ccc(-c3cn[nH]c3)cc2c(=O)[nH]1`, for which the IC50 in assay [2] stood at 239 nM.
On to `Fc1ccc([C@@H]2CNC[C@H]2c2nc(N3CCC3)c3cc(-c4cn[nH]c4)ccc3n2)cc1`, for which the IC50 in assay [1] turned out to be 443 nM; in assay [2], 71 nM.
For `O=c1[nH]c([C@@H]2CNC[C@H]2c2ccc(F)cc2)nc2ccc(-c3cn[nH]c3)cc12`, the IC50 came to 7 nM in assay [1] and 2 nM in assay [2].
As for `CN(CCO)c1nc([C@@H](N)Cc2cccc(F)c2)nc2ccc(-c3cn[nH]c3)cc12`, the figures for the IC50 in assay [1] and in assay [2] were 284 nM and 27 nM, respectively.
With `N[C@H](Cc1cccc(F)c1)c1nc2ccc(-c3cn[nH]c3)cc2c(=O)[nH]1`, the IC50 in assay [1] was 9 nM; in assay [2], 10 nM.
For the compound `Cc1n[nH]cc1-c1ccc2nc([C@@H]3CNC[C@H]3c3ccccc3)[nH]c(=O)c2c1`, the IC50 in assay [1] and in assay [2] was 7 nM in each case.
`COc1ccc(C(N)c2nc3ccc(-c4c[nH]nc4C)cc3c(=O)[nH]2)cc1` (stereo not drawn): in assay [2], the IC50 worked out at 98 nM.
